Measured values from US11945821B1, “5-substituted aminopyrazino[2′,1′:2,3]imidazo[4,5-C][2,7]naphthyridine compounds as CK2 inhibitors” (KING FAISAL UNIVERSITY, priority 2023, dated 2024).

What was measured:
[1] = tested on: H1299 (lung); experiment: In vitro cytotoxic activity (MTT) assay, H1299; format: cell-based; conditions: Homo sapiens, NCI-H1299; H1299 cells, exposed for 96 hours; read-out: IC50, 50% inhibition of cell proliferation, H1299 (lung)
Experimental: (§1) Compounds 1-12 were screened for their in vitro cytotoxic activity utilizing a 3-(4,5-dimethyl-thiazol-2-yl)-2,5-diphenyltetrazolium bromide (MTT) assay against selected cancer human cell lines consisting of PC3 (prostate), HCT116 (colon), A375 (melanoma), H1299 (lung), MIAPaCa-2 (pancreas), HL60 (leukemia), MCF7 (breast), MDA-MB-231 (breast) (T. Mosmann, J. Immunol. Meth., 1983, 65, 55-63). The cells were cultured at 37° C. in RMPI1640 medium supplemented with 10% fetal bovine serum, 50 IU/mL penicillin, and 50 μg/mL streptomycin in a 5% CO2 incubator. All cells were sub-cultured 3 times/week by trypsinisation. Viable cells were seeded and allowed to adhere for 12 h before a test drug was added in 96-well plates at an initial density of 1.0×10^5 cells/mL. Tumour cell lines were separately exposed to various concentrations of the tested compounds followed by incubation at a temperature of 37° C. during 96 h inside a medium of fresh RMPI 1640. Cells were subsequently incubated at 37° C. using MTT at 0.5 mg/mL during 4 h. After removal of supernatant, formazan crystals were dissolved in isopropanol and the optical density was measured at 570 nm. CX-4945 was used as a positive control.

[2] = tested on: PC3 (prostate); experiment: In vitro cytotoxic activity (MTT) assay, PC3; format: cell-based; conditions: Homo sapiens, PC-3; PC3 cells, exposed for 96 hours; read-out: IC50, 50% inhibition of cell proliferation, PC3 (prostate)
Experimental: as §1

[3] = tested on: MCF7 (breast); experiment: In vitro cytotoxic activity (MTT) assay, MCF7; format: cell-based; conditions: Homo sapiens; MCF7 cells, exposed for 96 hours; read-out: IC50, 50% inhibition of cell proliferation, MCF7 (breast)
Experimental: as §1

[4] = tested on: MIAPaCa-2 (pancreas); experiment: In vitro cytotoxic activity (MTT) assay, MIAPaCa-2; format: cell-based; conditions: Homo sapiens, MIA PaCa-2; MIAPaCa-2 cells, exposed for 96 hours; read-out: IC50, 50% inhibition of cell proliferation, MIAPaCa-2 (pancreas)
Experimental: as §1

[5] = tested on: MDA-MB-231 (breast); experiment: In vitro cytotoxic activity (MTT) assay, MDA-MB-231; format: cell-based; conditions: Homo sapiens; MDA-MB-231 cells, exposed for 96 hours; read-out: IC50, 50% inhibition of cell proliferation, MDA-MB-231 (breast)
Experimental: as §1

[6] = tested on: HL60 (leukemia); experiment: In vitro cytotoxic activity (MTT) assay, HL60; format: cell-based; conditions: Homo sapiens, HL-60; HL60 cells, exposed for 96 hours; read-out: IC50, 50% inhibition of cell proliferation, HL60 (leukemia)
Experimental: as §1

[7] = tested on: HCT116 (colon); experiment: In vitro cytotoxic activity (MTT) assay, HCT116; format: cell-based; conditions: Homo sapiens, HCT-116; HCT116 cells, exposed for 96 hours; read-out: IC50, 50% inhibition of cell proliferation, HCT116 (colon)
Experimental: as §1

[8] = molecular target: T1, recombinant human CK2 (RRββ-holoenzyme) (Homo sapiens, UniProt P68400); experiment: CK2 Kinase Assay (33P-ATP, filter plate); format: biochemical; conditions: final ATP 15 μM, 10 min at 30° C., eight concentrations; read-out: protein kinase CK2 IC50
T1 construct: purchased Millipore
T1 sequence (P68400 whole entry): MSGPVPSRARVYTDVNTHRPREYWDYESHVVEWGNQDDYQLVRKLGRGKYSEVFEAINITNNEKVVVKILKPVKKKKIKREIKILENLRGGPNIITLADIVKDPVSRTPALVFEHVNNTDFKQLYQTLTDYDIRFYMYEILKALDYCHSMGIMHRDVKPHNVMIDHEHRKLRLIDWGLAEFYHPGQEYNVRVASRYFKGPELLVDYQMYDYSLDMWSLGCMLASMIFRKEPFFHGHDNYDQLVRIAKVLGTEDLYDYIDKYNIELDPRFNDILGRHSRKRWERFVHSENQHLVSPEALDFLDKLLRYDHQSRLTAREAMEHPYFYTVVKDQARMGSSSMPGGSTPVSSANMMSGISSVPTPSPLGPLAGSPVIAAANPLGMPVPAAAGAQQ
T1 sequence (P67870 whole entry partner): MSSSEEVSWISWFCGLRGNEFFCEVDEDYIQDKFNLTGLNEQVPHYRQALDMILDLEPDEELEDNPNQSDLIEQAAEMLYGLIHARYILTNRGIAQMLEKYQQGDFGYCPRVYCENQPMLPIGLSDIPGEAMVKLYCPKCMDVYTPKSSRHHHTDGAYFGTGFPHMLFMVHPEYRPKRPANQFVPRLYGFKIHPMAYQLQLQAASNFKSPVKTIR
Experimental: CK2 Kinase Assay was conducted using the protocol as described in Pierre F. et al; J. Med. Chem. 2011, 54, 635-654. The tested compounds in aqueous solution were added at a volume of 10 μL to a reaction mixture comprising 10 μL of assay dilution buffer (ADB; 20 mM MOPS, pH 7.2, 25 mM β-glycerol phosphate, 5 mM EGTA, 1 mM sodium orthovanadate, and 1 mM dithiothreitol), 10 μL of substrate peptide (RRRDDDSDDD, dissolved in ADB at a concentration of 1 mM), 10 μL of recombinant human CK2 (RRββ-holoenzyme, 25 ng dissolved in ADB; Millipore). Reactions were initiated by the addition of 10 μL of ATP solution (90% 75 mMMgCl2, 75 μM ATP (final ATP concentration:15 μM) dissolved in ADB; 10% [γ-33P] ATP (stock 1 mCi/100 μL; 3000 Ci/mmol (Perkin-Elmer) and maintained for 10 min at 30° C. The reactions were quenched with 100 μL of 0.75% phosphoric acid and then transferred to and filtered through a phosphor cellulose filter plate (Millipore). After washing each well five times with 0.75% phosphoric acid, the plate was dried under vacuum for 5 min and, following the addition of 15 μL of scintillation fluid to each well, the residual radioactivity was measured using a Wallac luminescence counter. The IC50 values were derived from eight concentrations of test inhibitors.

[9] = tested on: A375 (melanoma); experiment: In vitro cytotoxic activity (MTT) assay, A375; format: cell-based; conditions: Homo sapiens, A-375; A375 cells, exposed for 96 hours; read-out: IC50, 50% inhibition of cell proliferation, A375 (melanoma)
Experimental: as §1

## Clc1cccc(Nc2nc3c(nc4cnccn43)c3ccncc23)c1 [Example 1, N-(3-chlorophenyl)pyrazino[2′,1′:2.3]imidazo[4,5-c][2.7]naphthyridin-5-amine]
[1]
  IC50: 1900 nM
[2]
  IC50: 1800 nM
[3]
  IC50: 4800 nM
[4]
  IC50: 1200 nM
[5]
  IC50: 4100 nM
[6]
  IC50: 3900 nM
[7]
  IC50: 2100 nM
[8]
  IC50: 22 nM
[9]
  IC50: 3300 nM
